Source: ChEMBL document CHEMBL1697781, “Assessment of the health effects of chemicals in humans: II. Construction of an adverse effects database for QSAR modeling” (Curr Drug Discov Technol, 2004)

Key:
Conditions in all cases: human; call rule not given here
[1] = test system: Hepatotoxicity; experiment: FDA HLAED, serum glutamic oxaloacetic transaminase (SGOT) increase
[2] = test system: Hepatotoxicity; experiment: FDA HLAED, alkaline phosphatase increase
[3] = test system: Hepatotoxicity; experiment: FDA HLAED, serum glutamic pyruvic transaminase (SGPT) increase
[4] = test system: Hepatotoxicity; experiment: FDA HLAED, gamma-glutamyl transferase (GGT) increase
[5] = test system: Hepatotoxicity; experiment: FDA HLAED, liver enzyme composite activity
[6] = test system: Hepatotoxicity; experiment: FDA HLAED, lactate dehydrogenase (LDH) increase
Throughout, for GGT Increase - Index Value: reference of the scale not given here.
Throughout, for LDH Increase - Index Value: reference of the scale not given here.

| SMILES | SGOT Increase - Activity Score [1] | SGOT Increase - Index Value [1] | SGOT Increase - Number of Reports [1] | Alkaline Phosphatase Increase - Activity Score [2] | Alkaline Phosphatase Increase - Index Value [2] | Alkaline Phosphatase Increase - Number of Reports [2] | SGPT Increase - Activity Score [3] | SGPT Increase - Index Value [3] | SGPT Increase - Number of Reports [3] | GGT Increase - Activity Score [4] | GGT Increase - Index Value [4] | GGT Increase - Number of Reports [4] | Composite Activity - Active [5] | Composite Activity - Marginal [5] | Composite Activity - Score [5] | LDH Increase - Activity Score [6] | LDH Increase - Index Value [6] | LDH Increase - Number of Reports [6] | Composite Activity - Active ([5]; Liver) | Composite Activity - Marginal ([5]; Liver) | other results |
| --- | --- | --- | --- | --- | --- | --- | --- | --- | --- | --- | --- | --- | --- | --- | --- | --- | --- | --- | --- | --- | --- |
| Cc1ccnc2c1NC(=O)c1cccnc1N2C1CC1 [NEVIRAPINE] | Active | 68.7 | >= 4 | Active | 27.5 | >= 4 | Active | 55 | >= 4 | Active | 41.2 | >= 4 | 5 | 0 | Active | Active | 34.4 | >= 4 | – | – | – |
| COC(=O)C1=C(C)NC(C)=C(C(=O)OCCN(C)Cc2ccccc2)C1c1cccc([N+](=O)[O-])c1 (configuration not stated) [NICARDIPINE] | Marginally Active | 3 | >= 4 | Inactive | 2 | >= 4 | Inactive | 2.5 | >= 4 | Inactive | 0.4 | < 4 | 0 | 1 | Inactive | Inactive | 0.9 | >= 4 | – | – | – |
| CN1CCC[C@H]1c1cccnc1 [NICOTINE] | Inactive | 0.6 | < 4 | Inactive | 0 | < 4 | Inactive | 0.6 | < 4 | Inactive | 0.3 | < 4 | – | – | – | Inactive | 0.9 | < 4 | 0 | 0 | Composite Activity - Score ([5]; Liver): Inactive |
| COC(=O)C1=C(C)NC(C)=C(C(=O)OC)C1c1ccccc1[N+](=O)[O-] [NIFEDIPINE] | Inactive | 0.6 | >= 4 | Inactive | 0.3 | < 4 | Inactive | 0.4 | >= 4 | Inactive | 0 | < 4 | 0 | 0 | Inactive | Inactive | 0.1 | < 4 | – | – | – |
| CC1(C)NC(=O)N(c2ccc([N+](=O)[O-])c(C(F)(F)F)c2)C1=O [NILUTAMIDE] | Inactive | 19.5 | < 4 | Inactive | 0 | < 4 | Inactive | 19.5 | < 4 | Inactive | 0 | < 4 | – | – | – | Inactive | 0 | < 4 | 0 | 0 | Composite Activity - Score ([5]; Liver): Inactive |
| COCCOC(=O)C1=C(C)NC(C)=C(C(=O)OC(C)C)C1c1cccc([N+](=O)[O-])c1 (configuration not stated) [NIMODIPINE] | Active | 23.4 | >= 4 | Active | 17.6 | < 4 | Active | 29.3 | >= 4 | Active | 17.6 | < 4 | 5 | 0 | Active | Active | 23.4 | >= 4 | – | – | – |
| COC(=O)C1=C(C)NC(C)=C(C(=O)OCC(C)C)C1c1ccccc1[N+](=O)[O-] (configuration not stated) [NISOLDIPINE] | Inactive | 3.2 | < 4 | Inactive | 0 | < 4 | Inactive | 1.6 | < 4 | Inactive | 0 | < 4 | 0 | 0 | Inactive | Inactive | 0 | < 4 | – | – | – |
| O=C1CN(/N=C/c2ccc([N+](=O)[O-])o2)C(=O)N1 [NITROFURANTOIN] | Active | 52 | >= 4 | Active | 32.8 | >= 4 | Active | 27.4 | >= 4 | Active | 16.4 | >= 4 | – | – | – | Active | 35.6 | >= 4 | 5 | 0 | Composite Activity - Score ([5]; Liver): Active |
| CNC(=C[N+](=O)[O-])NCCSCc1csc(CN(C)C)n1 [NIZATIDINE] | Marginally Active | 3 | >= 4 | Inactive | 1.4 | >= 4 | Inactive | 2.4 | >= 4 | Inactive | 0.8 | >= 4 | 0 | 1 | Inactive | Inactive | 0.5 | >= 4 | – | – | – |
